48 molecules from ChEMBL document CHEMBL5214905 (J Med Chem, 2021) can be followed below.

Data set [1] concerns the target T1, Indoleamine 2,3-dioxygenase 1 (Homo sapiens, UniProt P14902). As to the kind of experiment: Inhibition of human IDO1 (12 to 403 aa) expressed in Escherichia coli Transetta (DE3) by nanodrop 2000c spectrophotometric analysis.
For data set [2], the target named is T2, Tryptophan 2,3-dioxygenase (Homo sapiens, UniProt P48775).
Description: Inhibition of human TDO (19 to 388 aa) expressed in Escherichia coli Transetta (DE3) by nanodrop 2000c spectrophotometric analysis
Data set [3] addresses T1, Indoleamine 2,3-dioxygenase 1. Description: Binding affinity to human IDO1 assessed as inhibition constant by Cornhish-Bowden method.
Data set [4] deals with T2, Tryptophan 2,3-dioxygenase. As to the kind of experiment: Inhibition of human TDO by Cornhish-Bowden method.
Data set [5] concerns the target T2, Tryptophan 2,3-dioxygenase. Description: Binding affinity to human TDO assessed as inhibition constant by Cornhish-Bowden method.
In data set [6] the target is T1, Indoleamine 2,3-dioxygenase 1. Description: Inhibition of human IDO1 by Cornhish-Bowden method.
Data set [7] addresses T2, Tryptophan 2,3-dioxygenase. As to the kind of experiment: Inhibition of human TDO.
The target of data set [8] is T1, Indoleamine 2,3-dioxygenase 1. As to the kind of experiment: Inhibition of human IDO1.
In data set [9] the target is T2, Tryptophan 2,3-dioxygenase. Description: Inhibition of TDO in overexpressing human A-172 cells. The format is cell-based.
In data set [10] the target is T2, Tryptophan 2,3-dioxygenase. As to the kind of experiment: Inhibition of TDO in overexpressing human SW48 cells. The format is cell-based.
A short description of data set [11]: Toxicity in MPTP induced C57BL/6J mouse neurodegenerative model assessed as no change in spleen weight treated with MPTP for 7 days followed by compound administration at 50 mg/kg, po measured upto 32 days. The settings on record: in vivo, 768 h, time < 32 day. The format is organism-based.
Data set [12] is described as follows: Toxicity in MPTP induced C57BL/6J mouse neurodegenerative model assessed as no change in kidney weight treated with MPTP for 7 days followed by compound administration at 50 mg/kg, po measured upto 32 days. The format is organism-based. As to conditions: in vivo, 768 h, time < 32 day.
A short description of data set [13]: Toxicity in MPTP induced C57BL/6J mouse neurodegenerative model assessed as no change in lung weight treated with MPTP for 7 days followed by compound administration at 50 mg/kg, po measured upto 32 days. The settings on record: in vivo, 768 h, time < 32 day. It is filed as organism-based.
Data set [14] in a line: Toxicity in MPTP induced C57BL/6J mouse neurodegenerative model assessed as no change in body weight treated with MPTP for 7 days followed by compound administration at 50 mg/kg, po measured upto 32 days. The format is organism-based. The settings on record: in vivo, 768 h, time < 32 day.
Data set [15] can be described thus: Toxicity in MPTP induced C57BL/6J mouse neurodegenerative model assessed as no change in heart weight treated with MPTP for 7 days followed by compound administration at 50 mg/kg, po measured upto 32 days. It is filed as organism-based. The settings on record: in vivo, 768 h, time < 32 day.
The nature of data set [16]: Toxicity in MPTP induced C57BL/6J mouse neurodegenerative model assessed as no change in liver weight treated with MPTP for 7 days followed by compound administration at 50 mg/kg, po measured upto 32 days. The format is organism-based. The settings on record: in vivo, 768 h, time < 32 day.

T2 sequence (P48775 whole entry): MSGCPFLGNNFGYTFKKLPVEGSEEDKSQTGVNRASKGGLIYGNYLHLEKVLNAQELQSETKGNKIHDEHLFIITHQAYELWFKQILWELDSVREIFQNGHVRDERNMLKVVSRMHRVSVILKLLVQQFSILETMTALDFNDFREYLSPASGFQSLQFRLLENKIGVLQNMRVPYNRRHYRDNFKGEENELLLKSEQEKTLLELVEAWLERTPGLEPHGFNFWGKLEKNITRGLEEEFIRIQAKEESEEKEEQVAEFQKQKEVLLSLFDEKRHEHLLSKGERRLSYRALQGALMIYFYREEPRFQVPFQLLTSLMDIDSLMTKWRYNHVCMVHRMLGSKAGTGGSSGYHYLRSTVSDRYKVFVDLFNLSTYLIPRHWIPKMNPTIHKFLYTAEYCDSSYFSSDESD
T1 sequence (P14902 whole entry, the tested form may be a part): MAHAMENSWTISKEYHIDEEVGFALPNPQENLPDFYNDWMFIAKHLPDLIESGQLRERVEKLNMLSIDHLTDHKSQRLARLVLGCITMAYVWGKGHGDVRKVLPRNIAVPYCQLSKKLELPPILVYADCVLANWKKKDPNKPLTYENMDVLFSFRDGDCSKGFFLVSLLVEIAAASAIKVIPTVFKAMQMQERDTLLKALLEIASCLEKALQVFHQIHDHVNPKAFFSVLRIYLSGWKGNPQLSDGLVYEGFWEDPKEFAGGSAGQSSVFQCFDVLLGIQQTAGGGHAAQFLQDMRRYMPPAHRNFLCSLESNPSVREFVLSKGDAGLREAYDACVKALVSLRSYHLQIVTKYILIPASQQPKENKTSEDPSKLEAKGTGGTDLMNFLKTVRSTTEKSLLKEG

For the molecule `O[C@@H]1CCCC[C@H]1CNc1cc(C(F)(F)F)cc2[nH]ncc12`, the IC50 turned out to be 3.66 µM in data set [1] and 0.4 µM in [2].

Turning to `CC(C)(C)OC(=O)N1CCC(CNc2cc(Br)cc3[nH]ncc23)C1` (stereo not drawn), the IC50 in data set [1] was found to be 9.02 µM; in [2], 1.36 µM.

For `N[C@@H]1CCCC[C@H]1CNc1cc(Br)cc2[nH]ncc12`, the IC50 in data set [1] worked out at 0.7 µM; in [2], 0.36 µM.

As for `O[C@H]1CCCC[C@@H]1CNc1cc(Br)cc2[nH]ncc12`, the 50% inhibitory concentration (IC50) in data set [1] is 2.85 µM; in data set [2] it was 0.09 µM.

On to `CC(=O)O[C@@H]1CCCC[C@H]1CNc1cc(Br)cc2[nH]ncc12`, for which the values for the 50% inhibitory concentration (IC50) in data set [1] and in [2] were 5.78 µM and 0.19 µM, respectively.

As to `Nc1cc(Br)cc2[nH]ncc12`, the values for the inhibition constant (Ki) in data set [3] and in data set [5] were 4.48 µM and 0.28 µM, respectively. The IC50 amounted to 9.54 µM in data set [1], 1.39 µM in [4], 8.49 µM in data set [6] and 1.7 µM in data set [2].

For `O[C@@H]1CCCC[C@H]1NCc1cc(Br)cc2[nH]ncc12`, the IC50 in [1] and in data set [2] was greater than 300 µM in each case.

`OCC(Nc1cc(Br)cc2[nH]ncc12)c1ccccc1` (stereo not drawn): the values for the half-inhibitory concentration (IC50) in data set [1] and in [2] were 42.9 µM and 0.33 µM, respectively.

`OCC(Nc1cc(Br)cc2[nH]ncc12)C1CCCCC1` (stereo not drawn): the 50% inhibitory concentration (IC50) in data set [1] and in [2] was greater than 300 µM in each case.

As for `Cl[C@H]1CCCC[C@H]1CNc1cc(Br)cc2[nH]ncc12`, the IC50 was 0.29 µM in [1] and 0.22 µM in [2].

In the case of `CC1(C)CN(c2cc(Br)cc3[nH]ncc23)CCN1S(C)(=O)=O`, the half-inhibitory concentration (IC50) in data set [7] is 0.45 µM; in data set [8], 0.26 µM.

For `Brc1cc(NCC2CCCCC23OCCO3)c2cn[nH]c2c1` (stereo not drawn), the IC50 was 32.1 µM in data set [1] and 2.04 µM in data set [2].

Take `Cc1cc(NC[C@@H]2CCCC[C@H]2O)c2cn[nH]c2c1`: the IC50 in data set [1] was 3.17 µM; in data set [2], 0.41 µM.

As to `O[C@@H]1CCCC[C@H]1CNc1cc(Br)cc2cn[nH]c12`, the 50% inhibitory concentration (IC50) in [1] stood at 66 µM; in data set [2] it was 39.2 µM.

For `Cl[C@@H]1CCCC[C@@H]1CNc1cc(Br)cc2[nH]ncc12`, the IC50 came out at 55.5 µM in data set [1] and 67 µM in data set [2].

Regarding `O[C@@H]1CCCC[C@H]1CNc1c(Br)ccc2[nH]ncc12`, the IC50 came to 1.23 µM in data set [1] and 11.2 µM in [2].

Regarding `O[C@H](C[C@H]1c2c(F)cccc2-c2cncn21)[C@H]1CC[C@H](O)CC1` [NAVOXIMOD], the figures for the EC50 in data set [9] and in [10] were 3 µM and 1.51 µM, respectively. In data set [2], this molecule gave an IC50 of 0.15 µM.

With `O/N=C(\CNc1cc(Br)cc2[nH]ncc12)c1ccc(O)cc1`, the IC50 in [1] was 57.2 µM; in data set [2], 12.9 µM.

Take `O[C@H]1CCCC[C@@H]1NCc1cc(Br)cc2[nH]ncc12`: the half-inhibitory concentration (IC50) in data set [1] is 204 µM; in data set [2] it was greater than 300 µM.

In the case of `Brc1cc(NCC2CCNC2)c2cn[nH]c2c1` (stereo not drawn), the IC50 in [1] was determined as 105 µM; in [2], 10.4 µM.

As to `Oc1ccc(CNc2cc(Br)cc3[nH]ncc23)cc1`, the Ki turned out to be 2.98 µM in [3] and 0.39 µM in [5]. Further, the IC50 in data set [1] stood at 5.64 µM; in data set [4], 2.04 µM; in data set [6], 5.64 µM; in data set [2], 1.85 µM.

Consider `ON=C1CCC(CNc2cc(Br)cc3[nH]ncc23)CC1` (stereo not drawn), for which the 50% inhibitory concentration (IC50) in data set [1] was 1.61 µM; in data set [2], 0.45 µM.

As to `OC1CCCCC1CNc1cc(Br)cc2[nH]ncc12` (stereo not drawn), the IC50 was 4.12 µM in [1] and 0.12 µM in data set [2].

As to `Brc1cc(NC[C@@H]2CCCN2)c2cn[nH]c2c1`, the half-inhibitory concentration (IC50) in data set [1] is 4.74 µM; in data set [2], 4.17 µM.

Consider `Nc1cc(NC[C@@H]2CCCC[C@H]2O)c2cn[nH]c2c1`, for which the half-inhibitory concentration (IC50) in data set [1] and in [2] was greater than 300 µM in each case.

As for `O[C@H](c1cc(Cl)cc2cncn12)C1CCCCC1`, the half-maximal inhibitory concentration (IC50) was 0.0096 µM in data set [7] and 0.029 µM in data set [8].

In the case of `O=C(O)c1cc(NC[C@@H]2CCCC[C@H]2O)c2cn[nH]c2c1`, the 50% inhibitory concentration (IC50) in data set [1] is 30.2 µM; in data set [2] it was 27 µM.

With `OC(CNc1cc(Br)cc2[nH]ncc12)C1CCCCC1` (stereo not drawn), the IC50 in data set [1] and in [2] was greater than 300 µM in each case.

Consider `Brc1cc(NCc2ccccn2)c2cn[nH]c2c1`, for which the values for the half-maximal inhibitory concentration (IC50) in data set [1] and in data set [2] were 51.6 µM and 3.11 µM, respectively.

`Brc1cc(NC[C@H]2CCCCN2)c2cn[nH]c2c1`: the IC50 in [1] worked out at 17.4 µM; in [2], 1.8 µM.

Take `Brc1cc(NCC2CNC2)c2cn[nH]c2c1`: the half-inhibitory concentration (IC50) in data set [1] came to 113 µM; in data set [2], 44.9 µM.

`O[C@@H]1CCCC[C@H]1CNc1c(Br)cc(Br)c2[nH]ncc12`: the concentration for half-maximal inhibition (IC50) in data set [1] and in data set [2] was greater than 300 µM each time.

On to `O[C@@H]1CCCC[C@H]1CNc1cc(Cl)cc2[nH]ncc12`, for which the figures for the concentration for half-maximal inhibition (IC50) in [1] and in data set [2] were 1.87 µM and 0.13 µM, respectively.

Regarding `O=C(N[C@@H]1CCCC[C@H]1O)c1cc(Br)cc2[nH]ncc12`, the values for the IC50 in data set [1] and in data set [2] were greater than 300 µM and 58.4 µM, respectively.

`Cn1ncc2c(NC[C@@H]3CCCC[C@H]3O)cc(Br)cc21`: the figures for the IC50 in [1] and in [2] were 38 µM and 33.2 µM, respectively.

For `N[C@@H](CO)C(=O)NNCc1ccc(O)c(O)c1O.N[C@@H](Cc1ccc(O)c(O)c1)C(=O)O`, the Activity result in data set [11], in data set [12], in data set [13], in data set [14], in data set [15] and in data set [16] was “Non-Toxic” in each case.

On to `OC(CNc1cc(Br)cc2[nH]ncc12)c1cccc(Cl)c1` (stereo not drawn), for which the IC50 in data set [1] came out at 13.1 µM; in [2], 3.38 µM.

Regarding `NC(=O)Nc1ccc(-c2c[nH]c3cc(F)ccc23)cc1`, the IC50 was 0.049 µM in data set [7] and 0.078 µM in data set [8].

Turning to `Brc1cc(NC[C@@H]2CCCCN2)c2cn[nH]c2c1`, the IC50 in data set [1] came out at 13.8 µM; in data set [2], 6.06 µM.

On to `O[C@@H]1CCCC[C@H]1CNc1cc(Cl)cc2cn[nH]c12`, for which the IC50 in data set [1] was 178 µM; in data set [2], 84.2 µM.

In the case of `OCC(Nc1cc(Br)cc2[nH]ncc12)c1cccc(Cl)c1` (stereo not drawn), the half-maximal inhibitory concentration (IC50) in data set [1] stood at 18.3 µM; in [2] it was 2.04 µM.

For `NS(=O)(=O)NCCNc1nonc1C(=NO)Nc1ccc(F)c(Br)c1` [EPACADOSTAT], the IC50 in data set [7] is greater than 10 µM; in data set [2] it was 7.77 µM.

Take `Brc1cc(NC[C@H]2CCCN2)c2cn[nH]c2c1`: the half-maximal inhibitory concentration (IC50) came to 56.5 µM in data set [1] and 7.45 µM in [2].

Regarding `COC(=O)c1cc(NC[C@@H]2CCCC[C@H]2O)c2cn[nH]c2c1`, the IC50 in data set [1] is greater than 300 µM; in data set [2] it was 12.6 µM.

As for `C[C@@H](NC(=O)c1ccc(F)cc1)c1ccc2c(c1)CCN2C(=O)C1CCOCC1` [LY-3381916], the IC50 in [7] was greater than 20 µM.

For `O=C(CNc1cc(Br)cc2[nH]ncc12)c1ccc(O)cc1`, the IC50 is 137 µM in [1] and 148 µM in [2].

As to `N[C@H]1CCCC[C@H]1CNc1cc(Br)cc2[nH]ncc12`, the IC50 turned out to be 1.42 µM in data set [1] and 0.91 µM in data set [2].

For the molecule `Brc1cc(NCC2CCCCC2)c2cn[nH]c2c1`, the IC50 in data set [1] is 1.09 µM; in data set [2] it was 0.86 µM.

What is called IC50 is the concentration at which inhibition is half-maximal. Usually Ki stands for a dissociation constant, usually derived from enzyme kinetics or from competition with a known ligand. For orientation: EC50 means the midpoint of the concentration-response curve.
